Assay results from patent US12534457B2, “Heteroaryl derivative compounds, and uses thereof” (Voronoi Inc., priority 2021, dated 2026).

system: Ba/F3 cells expressing EGFR Del19/C797S (EGFR DC); assay: Proliferation inhibitory activity, Ba/F3 cells expressing EGFR Del19/C797S (CellTiter-Glo); format: cell-based; conditions: 72 hours of compound treatment
Procedure, shortened: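 Viability after 72 h of compound exposure was measured by luminescence (CellTiter-Glo) in Ba/F3 lines transduced with mutant EGFR. Final concentrations spanned 0.2 nM–5 μM over 12 threefold steps. Growth relative to untreated control gave GI50 values; each test was run three times.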

GI50 [nM] | Structure (SMILES)
< 50 | COc1cc(Nc2cc(N3OCC[C@@H]3c3cc(F)cc(F)c3)ncn2)ccc1N1CCC(N2CCN(C)CC2)CC1 [Example 26]

same assay, conditions: Mus musculus, BaF3, 72 hours of compound treatment

Structure (SMILES) | GI50 [nM]
COc1cc2c(cc1Nc1cc(N3OCC[C@@H]3c3cc(F)cc(F)c3)ncn1)NCC21CCN(C)CC1 [Example 154, (R)—N-(6-(3-(3,5-difluorophenyl)isoxazolidin-2-yl)pyrimidin-4-yl)-5-methoxy-1′-methylspiro[indolin-3,4′-piperidin]-6-amine] | < 50
COc1cc(N2CCC(N3CCN(C)CC3)CC2)ccc1Nc1cc(N2OCC[C@@H]2c2ccc(C)nc2)ncn1 [Example 38, (R)—N-(2-methoxy-4-(4-(4-methylpiperazin-1-yl)piperidin-1-yl)phenyl)-6-(3-(6-methylpyridin-3-yl)isoxazolidin-2-yl)pyrimidin-4-amine] | 50 to 500
CN1CCN(c2ccc(Nc3cc(N4Oc5ccccc5C4c4ccccc4)ncn3)cc2)CC1 (stereo not drawn) [Example 229, N-(4-(4-methylpiperazin-1-yl)phenyl)-6-(3-phenylbenzo[d]isoxazol-2(3H)-yl)pyrimidin-4-amine] | 50 to 500
CN1CCN(c2cc(OCC(F)(F)F)c(Nc3cc(N4OCC[C@@H]4c4ccccc4)ncn3)cc2-c2cnn(C)c2)CC1 [Example 166, (R)—N-(5-(1-methyl-1H-pyrazol-4-yl)-4-(4-methylpiperazin-1-yl)-2-(2,2,2-trifluoroethoxy)phenyl)-6-(3-phenylisoxazolidin-2-yl)pyrimidin-4-amine] | < 50
CN1CCN(C2CCN(c3ccc(Nc4cc(N5OCC[C@@H]5c5cc(F)cc(F)c5)ncn4)cc3S(C)(=O)=O)CC2)CC1 [Example 24, (R)-6-(3-(3,5-difluorophenyl)isoxazolidin-2-yl)-N-(4-(4-(4-methylpiperazin-1-yl)piperidin-1-yl)-3-(methylsulfonyl)phenyl)pyrimidin-4-amine] | 50 to 500
Fc1cc(F)cc([C@H]2CCON2c2cc(Nc3ccc(C4CCNCC4)c4c3OCC4)ncn2)c1 [Example 157, (R)-6-(3-(3,5-difluorophenyl)isoxazolidin-2-yl)-N-(4-(piperidin-4-yl)-2,3-dihydrobenzofuran-7-yl)pyrimidin-4-amine] | < 50
COc1cc(N2CCC(N3CCC(N(C)C)CC3)CC2)ccc1Nc1cc(N2OCC[C@@H]2c2ccccc2)ncn1 [Example 115, (R)-1′-(3-methoxy-4-((6-(3-phenylisoxazolidin-2-yl)pyrimidin-4-yl)amino)phenyl)-N,N-dimethyl-[1,4′-bipiperidin]-4-amine] | < 50
CCc1cc(Nc2cc(N3OCC[C@@H]3c3cccc(F)c3F)ncn2)c(OC)cc1N1CCC(N2CCN(C)CC2)CC1 [Example 92, (R)-6-(3-(2,3-difluorophenyl)isoxazolidin-2-yl)-N-(5-ethyl-2-methoxy-4-(4-(4-methylpiperazin-1-yl)piperidin-1-yl)phenyl)pyrimidin-4-amine] | < 50
COc1cc(N2CCC(N3C[C@H]4C[C@@H]3CN4C)CC2)ccc1Nc1cc(N2OCC[C@@H]2c2ccccc2)ncn1 [Example 57, N-(2-methoxy-4-(4-((1R,4R)-5-methyl-2,5-diazabicyclo[2.2.1]heptan-2-yl)piperidin-1-yl)phenyl)-6-((R)-3-phenylisoxazolidin-2-yl)pyrimidin-4-amine] | < 50
COc1cc(N2CCC(N3CCCC3)CC2)ccc1Nc1cc(N2OCC[C@@H]2c2ccccc2)ncn1 [Example 62, (R)—N-(2-methoxy-4-(4-(pyrrolidin-1-yl)piperidin-1-yl)phenyl)-6-(3-phenylisoxazolidin-2-yl)pyrimidin-4-amine] | < 50
CCC(=O)Nc1cc(Nc2cc(N3OCC[C@@H]3c3cccs3)ncn2)c(OC)cc1N1CCC(N2CCN(C3CC3)CC2)CC1 [Example 163, (R)—N-(2-(4-(4-cyclopropylpiperazin-1-yl)piperidin-1-yl)-4-methoxy-5-((6-(3-(thiophene-2-yl)isoxazolidin-2-yl)pyrimidin-4-yl)amino)phenyl)propionamide] | < 50
COc1cc(Nc2cc(N3OCC[C@@H]3c3ccc(Cl)cc3F)ncn2)ccc1N1CCC(N2CCN(C)CC2)CC1 [Example 105, (R)-6-(3-(4-chloro-2-fluorophenyl)isoxazolidin-2-yl)-N-(3-methoxy-4-(4-(4-methylpiperazin-1-yl)piperidin-1-yl)phenyl)pyrimidin-4-amine] | < 50
CN(C)[C@@H]1CCN(c2ccc(Nc3cc(N4OCC[C@@H]4c4ccccc4)ncn3)cc2)C1 [Example 69, N-(4-((R)-3-(dimethylamino)pyrrolidin-1-yl)phenyl)-6-((R)-3-phenylisoxazolidin-2-yl)pyrimidin-4-amine] | < 50

The remaining lines, values ahead:

GI50 [nM] | Structure (SMILES)
< 50 | C#Cc1cc(Nc2cc(N3OCC[C@@H]3c3cccc(F)c3F)ncn2)c(OC)cc1N1CCN(C)CC1 [Example 200, (R)-6-(3-(2,3-difluorophenyl)isoxazolidin-2-yl)-N-(5-ethynyl-2-methoxy-4-(4-methylpiperazine-1-yl)phenyl)pyrimidin-4-amine]
50 to 500 | COc1cc(N2CCC(N3CCN(C)CC3)CC2)ccc1Nc1cc(N2OCC[C@@H]2c2cccc(C(=O)OC(C)C)c2)ncn1 [Example 100, isopropyl (R)-3-(2-(6-((2-methoxy-4-(4-(4-methylpiperazin-1-yl)piperidin-1-yl)phenyl)amino)pyrimidin-4-yl)isoxazolidin-3-yl)benzoate]
< 50 | COc1cc(N2CCC(N3CCN(C)CC3)CC2)c(C(C)C)cc1Nc1cc(N2OCC[C@@H]2c2cccc(F)c2F)ncn1 [Example 142, (R)-6-(3-(2,3-difluorophenyl)isoxazolidin-2-yl)-N-(5-isopropyl-2-methoxy-4-(4-(4-methylpiperazin-1-yl)piperidin-1-yl)phenyl)pyrimidin-4-amine]
< 50 | COc1cc(Nc2cc(N3OCC[C@@H]3c3ccc(F)cc3)ncn2)ccc1N1CCC(N2CCN(C)CC2)CC1 [Example 96, (R)-6-(3-(4-fluorophenyl)isoxazolidin-2-yl)-N-(3-methoxy-4-(4-(4-methylpiperazin-1-yl)piperidin-1-yl)phenyl)pyrimidin-4-amine]
< 50 | CC(C)[C@H]1CCON1c1cc(Nc2ccc(N3CCN(C)CC3)cc2)ncn1 [Example 235, (R)-6-(3-isopropylisoxazolidin-2-yl)-N-(4-(4-methylpiperazin-1-yl)phenyl)pyrimidin-4-amine]
< 50 | COc1cc(N2CCC(N3CCN(C)CC3)CC2)ccc1Nc1cc(N2OCC[C@@H]2c2cccs2)ncn1 [Example 35, (R)—N-(2-methoxy-4-(4-(4-methylpiperazin-1-yl)piperidin-1-yl)phenyl)-6-(3-(thiophen-2-yl)isoxazolidin-2-yl)pyrimidin-4-amine]
< 50 | COc1cc(N2CCC(N3CCN(C)CC3)CC2)c(C)cc1Nc1cc(N2OCC[C@@H]2c2ccccc2)ncn1 [Example 114, (R)—N-(2-methoxy-5-methyl-4-(4-(4-methylpiperazin-1-yl)piperidin-1-yl)phenyl)-6-(3-phenylisoxazolidin-2-yl)pyrimidin-4-amine]
50 to 500 | CN1CCN(c2ccc(Nc3cc(N4OCC[C@@H]4c4cncc(Cl)c4)ncn3)cc2)CC1 [Example 180, (R)-6-(3-(5-chloropyridin-3-yl)isoxazolidin-2-yl)-N-(4-(4-methylpiperazin-1-yl)phenyl)pyrimidin-4-amine]
< 50 | COc1cc(N2CCC(N3CCN(C)CC3)CC2)ccc1Nc1cc(N2OCC[C@@H]2c2cccc(F)c2)ncn1 [Example 29, (R)-6-(3-(3-fluorophenyl)isoxazolidin-2-yl)-N-(2-methoxy-4-(4-(4-methylpiperazin-1-yl)piperidin-1-yl)phenyl)pyrimidin-4-amine]
< 50 | COc1nc(N2CCN(C)CC2)c(-c2cnn(C)c2)cc1Nc1cc(N2OCC[C@@H]2c2cccc(F)c2F)ncn1 [Example 202, (R)-6-(3-(2,3-difluorophenyl)isoxazolidin-2-yl)-N-(2-methoxy-5-(1-methyl-1H-pyrazol-4-yl)-6-(4-methylpiperazin-1-yl)pyridin-3-yl)pyrimidin-4-amine]
< 50 | Cc1cc(Nc2cc(N3OCC[C@@H]3c3cccc(F)c3F)ncn2)ccc1N1CCC(N2CCN(C)CC2)CC1 [Example 126, (R)-6-(3-(2,3-difluorophenyl)isoxazolidin-2-yl)-N-(3-methyl-4-(4-(4-methylpiperazin-1-yl)piperidin-1-yl)phenyl)pyrimidin-4-amine]
< 50 | COc1cc(C2CCN(C)CC2)ccc1Nc1cc(N2OCC[C@@H]2c2cccc(F)c2F)ncn1 [Example 141, (R)-6-(3-(2,3-difluorophenyl)isoxazolidin-2-yl)-N-(2-methoxy-4-(1-methylpiperidin-4-yl)phenyl)pyrimidin-4-amine]
50 to 500 | COc1cc(N2CCC(N3CCN(C)CC3)CC2)ccc1Nc1cc(N2OCC[C@@H]2c2cccc(N(C)C)c2)ncn1 [Example 131, (R)-6-(3-(3-(dimethylamino)phenyl)isoxazolidin-2-yl)-N-(2-methoxy-4-(4-(4-methylpiperazin-1-yl)piperidin-1-yl)phenyl)pyrimidin-4-amine]
< 50 | Cc1cc(Nc2cc(N3OCC[C@@H]3c3cc(F)ccc3F)ncn2)ccc1N1CCC(N2CCN(C)CC2)CC1 [Example 103, (R)-6-(3-(2,5-difluorophenyl)isoxazolidin-2-yl)-N-(3-methyl-4-(4-(4-methylpiperazin-1-yl)piperidin-1-yl)phenyl)pyrimidin-4-amine]
< 50 | C[C@@H]1[C@@H](CS(C)(=O)=O)CN1c1cc(Nc2cc(N3OCC[C@@H]3c3cccc(F)c3F)ncn2)cc(-c2cnn(C)c2)c1N1CCOCC1 [Example 203, 6-((R)-3-(2,3-difluorophenyl)isoxazolidin-2-yl)-N-(3-(1-methyl-1H-pyrazol-4-yl)-5-((2R,3S)-2-methyl-3-((methylsulfonyl)methyl)azetidin-1-yl)-4-morpholinophenyl)pyrimidin-4-amine]
< 50 | CCc1cc(Nc2cc(N3OCC[C@@H]3c3ccccc3)ncn2)ccc1N1CCC(N2CCN(C)CC2)CC1 [Example 117, (R)—N-(3-ethyl-4-(4-(4-methylpiperazin-1-yl)piperidin-1-yl)phenyl)-6-(3-phenylisoxazolidin-2-yl)pyrimidin-4-amine]
